Source: patent publication US20020169101A1, “Treatment of sexual dysfunction” (priority 1999, published 2002)

Legend:
human GRP receptor (BB2) = molecular target: T1, human GRP receptor (BB2) (Homo sapiens, UniProt P30550); assay: BB2 binding assay ([125I][Tyr4]bombesin displacement, CHO-K1 membranes); conditions: second 'TABLE 4', N-terminal urethane derivatives of Intermediate III-7
T1 construct: expressed in transfected cells; membranes prepared from the cells
Protocol: In the following experiments, measurement of BB1 and BB2 binding was as follows. CHO-K1 cells stably expressing cloned human NMB (for (BB1 assay) and GRP receptors (for BB2 assay) were routinely grown in Ham's F12 culture medium supplemented with 10% foetal calf serum and 2 mM glutamine. For binding experiments, cells were harvested by trypsinization, and stored frozen at −70° C. in Ham's F12 culture medium containing 5% DMSO until required. On the day of use, cells were thawed rapidly, diluted with an excess of culture medium, and centrifuged for 5 minutes at 2000 g. Cells were resuspended in 50 mM Tris-HCl assay buffer (pH 7.4 at 21° C., containing 0.02% BSA, 40 μg/mL bacitracin, 2 μg/mL chymostatin, 4 μg/mL leupeptin, and 2 μM phosphoramidon), counted, and polytronned (setting 5, 10 sec) before centrifuging for 10 minutes at 28,000 g. The final pellet was resuspended in assay buffer to a final cell concentration of 1.5×10^5/mL. For binding assays, […] aliquots of membranes were incubated with [^125I][Tyr^4]bombesin (<0.1 nM) in the presence and absence of test compounds (final assay volume 250 μL) for 60 minutes and 90 minutes for NMB and GRP receptors, respectively. Nonspecific binding was defined by 1 μM bombesin. Assays were terminated by rapid filtration under vacuum onto Whatman GF/C filters presoaked in 0.2% PEI for >2 hours, and washed 50 mM Tris-HCl (pH 6.9 at 21° C.; 6×1 mL). Radioactivity bound was determined using a gamma counter.
All competition data was analysed using nonlinear regression utilizing iterative curve-plotting procedures in Prism® (GraphPad Software Inc., San Diego, USA). IC50 values were corrected to Ki values using the Cheng-Prusoff equation (Cheng Y., Prusoff W. H., Biochem. Pharmacol. 22: 3099-3108, 1973). obtained are listed in Table 1.

human NMB receptor (BB1) = molecular target: T2, human NMB receptor (BB1) (Homo sapiens, UniProt P28336); assay: BB1 binding assay ([125I][Tyr4]bombesin displacement, CHO-K1 membranes); conditions: second 'TABLE 4', N-terminal urethane derivatives of Intermediate III-7
T2 construct: expressed in transfected cells; membranes prepared from the cells
T2 sequence (P28336 whole entry): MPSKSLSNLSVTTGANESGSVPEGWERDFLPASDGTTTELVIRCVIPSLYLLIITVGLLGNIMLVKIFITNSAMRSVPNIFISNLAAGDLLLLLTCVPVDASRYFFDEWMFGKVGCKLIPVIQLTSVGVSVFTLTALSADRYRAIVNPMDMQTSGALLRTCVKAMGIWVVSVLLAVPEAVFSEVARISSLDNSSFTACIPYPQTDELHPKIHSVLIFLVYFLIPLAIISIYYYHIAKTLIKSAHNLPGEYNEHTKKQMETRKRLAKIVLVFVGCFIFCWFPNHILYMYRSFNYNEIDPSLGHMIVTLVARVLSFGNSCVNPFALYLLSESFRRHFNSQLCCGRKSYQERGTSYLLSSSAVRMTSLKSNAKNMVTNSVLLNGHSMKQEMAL
Procedure, shortened: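 Competition against <0.1 nM [125I][Tyr4]bombesin, 60 min for the NMB receptor and 90 min for the GRP receptor, using homogenised membranes of human-receptor-expressing CHO-K1 cells in pH 7.4 Tris buffer. Bound label was filtered and gamma-counted, with 1 μM bombesin as nonspecific. Ki values came from IC50 via Cheng-Prusoff.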

T1 sequence (P30550 whole entry): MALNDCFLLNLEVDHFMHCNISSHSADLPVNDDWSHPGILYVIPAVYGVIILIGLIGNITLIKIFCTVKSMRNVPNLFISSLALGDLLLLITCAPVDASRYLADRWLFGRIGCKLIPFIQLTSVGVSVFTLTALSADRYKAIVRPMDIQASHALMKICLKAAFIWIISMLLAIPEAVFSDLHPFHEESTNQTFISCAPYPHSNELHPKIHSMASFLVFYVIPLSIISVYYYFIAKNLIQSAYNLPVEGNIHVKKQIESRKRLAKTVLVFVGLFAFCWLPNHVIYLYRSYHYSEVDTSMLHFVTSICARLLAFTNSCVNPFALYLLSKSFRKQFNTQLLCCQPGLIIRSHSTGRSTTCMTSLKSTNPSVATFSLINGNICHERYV

| SMILES | IC50 (human GRP receptor (BB2)) | IC50 (human NMB receptor (BB1)) |
| --- | --- | --- |
| C[C@@](Cc1c[nH]c2ccccc12)(NC(=O)OCc1cccc2ccccc12)C(=O)NCC1(c2ccccn2)CCCCC1 [Example 87, {(S)-2-(1H-Indol-3-yl)-1-methyl-1-[(1-pyridin-2-yl-cyclohexylmethyl)-carbamoyl]-ethyl}-carbamic acid naphthalen-1-ylmethyl ester] | > 10000 nM | 239 nM |
| COc1ccc(COC(=O)N[C@@](C)(Cc2c[nH]c3ccccc23)C(=O)NCC2(c3ccccn3)CCCCC2)cc1OC [Example 88, {(S)-2-(1H-Indol-3-yl)-1-methyl-1-[(1-pyridin-2-yl-cyclohexylmethyl)-carbamoyl]-ethyl}-carbamic acid 3,4-dimethoxy-benzyl ester] | > 10000 nM | 1760 nM |
| C[C@@](Cc1c[nH]c2ccccc12)(NC(=O)OC1Cc2ccccc2C1)C(=O)NCC1(c2ccccn2)CCCCC1 [Example 90, {(S)-2-(1H-Indol-3-yl)-1-methyl-1-[(1-pyridin-2-yl-cyclohexylmethyl)-carbamoyl]-ethyl}-carbamic acid indan-2-yl ester] | > 10000 nM | 955 nM |
| C[C@@](Cc1c[nH]c2ccccc12)(NC(=O)OCc1ccc(Cl)c(Cl)c1)C(=O)NCC1(c2ccccn2)CCCCC1 [Example 91, {(S)-2-(1H-Indol-3-yl)-1-methyl-1-[(1-pyridin-2-yl-cyclohexylmethyl)-carbamoyl]-ethyl}-carbamic acid 3,4-dichloro-benzyl ester] | > 10000 nM | 202 nM |
| COc1ccc(COC(=O)N[C@@](C)(Cc2c[nH]c3ccccc23)C(=O)NCC2(c3ccccn3)CCCCC2)cc1 [Example 92, {(S)-2-(1H-Indol-3-yl)-1-methyl-1-[(1-pyridin-2-yl-cyclohexylmethyl)-carbamoyl]-ethyl}-carbamic acid 4-methoxy-benzyl ester] | > 10000 nM | 1610 nM |
| C[C@@](Cc1c[nH]c2ccccc12)(NC(=O)OCc1ccccc1F)C(=O)NCC1(c2ccccn2)CCCCC1 [Example 94, {(S)-2-(1H-Indol-3-yl)-1-methyl-1-[(1-pyridin-2-yl-cyclohexylmethyl)-carbamoyl]-ethyl}-carbamic acid 2-fluoro-benzyl ester] | > 10000 nM | 923 nM |
| C[C@@](Cc1c[nH]c2ccccc12)(NC(=O)OCc1ccccc1Cl)C(=O)NCC1(c2ccccn2)CCCCC1 [Example 95, {(S)-2-(1H-Indol-3-yl)-1-methyl-1-[(1-pyridin-2-yl-cyclohexylmethyl)-carbamoyl]-ethyl}-carbamic acid 2-chloro-benzyl ester] | > 10000 nM | 624 nM |
| CC(C)(C)c1ccc(COC(=O)N[C@@](C)(Cc2c[nH]c3ccccc23)C(=O)NCC2(c3ccccn3)CCCCC2)cc1 [Example 98, {(S)-2-(1H-Indol-3-yl)-1-methyl-1-[(1-pyridin-2-yl-cyclohexylmethyl)-carbamoyl]-ethyl}-carbamic acid 4-tert-butyl-benzyl ester] | > 10000 nM | 1990 nM |
| C[C@@](Cc1c[nH]c2ccccc12)(NC(=O)OCc1cccc([N+](=O)[O-])c1)C(=O)NCC1(c2ccccn2)CCCCC1 [Example 99, {(S)-2-(1H-Indol-3-yl)-1-methyl-1-[(1-pyridin-2-yl-cyclohexylmethyl)-carbamoyl]-ethyl}-carbamic acid 3-nitro-benzyl ester] | 612 nM | 17 nM |
| C[C@@](Cc1c[nH]c2ccccc12)(NC(=O)OCc1ccc(C(F)(F)F)cc1)C(=O)NCC1(c2ccccn2)CCCCC1 [Example 101, {(S)-2-(1H-Indol-3-yl)-1-methyl-1-[(1-pyridin-2-yl-cyclohexylmethyl)-carbamoyl]-ethyl}-carbamic acid 4-trifluoromethyl-benzyl ester] | > 10000 nM | 1100 nM |
| CCOc1cccc(COC(=O)N[C@@](C)(Cc2c[nH]c3ccccc23)C(=O)NCC2(c3ccccn3)CCCCC2)c1 [Example 102, {(S)-2-(1H-Indol-3-yl)-1-methyl-1-[(1-pyridin-2-yl-cyclohexylmethyl)-carbamoyl]-ethyl}-carbamic acid 3-ethoxy-benzyl ester] | > 10000 nM | 1060 nM |
| C[C@@](Cc1c[nH]c2ccccc12)(NC(=O)OCc1cccc(Oc2ccccc2)c1)C(=O)NCC1(c2ccccn2)CCCCC1 [Example 106, {(S)-2-(1H-Indol-3-yl)-1-methyl-1-[(1-pyridin-2-yl-cyclohexylmethyl)-carbamoyl]-ethyl}-carbamic acid 3-phenoxy-benzyl ester] | > 10000 nM | 1350 nM |

More lines, now with the values ahead:

| IC50 (human GRP receptor (BB2)) | IC50 (human NMB receptor (BB1)) | SMILES |
| --- | --- | --- |
| > 10000 nM | 1000 nM | C[C@@](Cc1c[nH]c2ccccc12)(NC(=O)OCc1ccc2ccccc2c1)C(=O)NCC1(c2ccccn2)CCCCC1 [Example 89, {(S)-2-(1H-Indol-3-yl)-1-methyl-1-[(1-pyridin-2-yl-cyclohexylmethyl)-carbamoyl]-ethyl}-carbamic acid naphthalen-2-ylmethyl ester] |
| > 10000 nM | 681 nM | C[C@@](Cc1c[nH]c2ccccc12)(NC(=O)OCc1ccc(Cl)cc1)C(=O)NCC1(c2ccccn2)CCCCC1 [Example 93, {(S)-2-(1H-Indol-3-yl)-1-methyl-1-[(1-pyridin-2-yl-cyclohexylmethyl)-carbamoyl]-ethyl}-carbamic acid 4-chloro-benzyl ester] |
| 463 nM | 41 nM | C[C@@](Cc1c[nH]c2ccccc12)(NC(=O)OCc1ccc([N+](=O)[O-])cc1)C(=O)NCC1(c2ccccn2)CCCCC1 [Example 96, {(S)-2-(1H-Indol-3-yl)-1-methyl-1-[(1-pyridin-2-yl-cyclohexylmethyl)-carbamoyl]-ethyl}-carbamic acid 4-nitro-benzyl ester] |
| > 10000 nM | 751 nM | Cc1ccccc1COC(=O)N[C@@](C)(Cc1c[nH]c2ccccc12)C(=O)NCC1(c2ccccn2)CCCCC1 [Example 97, {(S)-2-(1H-Indol-3-yl)-1-methyl-1-[(1-pyridin-2-yl-cyclohexylmethyl)-carbamoyl]-ethyl}-carbamic acid 2-methyl-benzyl ester] |
| > 10000 nM | 818 nM | COc1ccccc1COC(=O)N[C@@](C)(Cc1c[nH]c2ccccc12)C(=O)NCC1(c2ccccn2)CCCCC1 [Example 100, {(S)-2-(1H-Indol-3-yl)-1-methyl-1-[(1-pyridin-2-yl-cyclohexylmethyl)-carbamoyl]-ethyl}-carbamic acid 2-methoxy-benzyl ester] |
| > 10000 nM | 85 nM | C[C@@](Cc1c[nH]c2ccccc12)(NC(=O)OCc1cccc(C#N)c1)C(=O)NCC1(c2ccccn2)CCCCC1 [Example 103, {(S)-2-(1H-Indol-3-yl)-1-methyl-1-[(1-pyridin-2-yl-cyclohexylmethyl)-carbamoyl]-ethyl}-carbamic acid 3-cyano-benzyl ester] |
| > 10000 nM | 841 nM | Cc1cccc(COC(=O)N[C@@](C)(Cc2c[nH]c3ccccc23)C(=O)NCC2(c3ccccn3)CCCCC2)c1 [Example 105, {(S)-2-(1H-Indol-3-yl)-1-methyl-1-[(1-pyridin-2-yl-cyclohexylmethyl)-carbamoyl]-ethyl}-carbamic acid 3-methyl-benzyl ester] |
| > 10000 nM | 182 nM | C[C@@](Cc1c[nH]c2ccccc12)(NC(=O)OCc1cccc(C(F)(F)F)c1)C(=O)NCC1(c2ccccn2)CCCCC1 [Example 107, {(S)-2-(1H-Indol-3-yl)-1-methyl-1-[(1-pyridin-2-yl-cyclohexylmethyl)-carbamoyl]-ethyl}-carbamic acid 3-trifluoromethyl-benzyl ester] |
